Measured values reported in US20240228555A9, “ANTIMICROBIAL PEPTIDOMIMETICS” (Basilea Pharmaceutica International AG, Allschwil, priority 2020, published 2024).
Where a SMILES comes first, the peptide text is derived from it.

What was measured:
[1] = tested on: human red blood cells (hRBC); format: cell-based; conditions: red cells of human, 1 h, 0.2 g/L
Outline: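 Percent lysis was derived from supernatant absorbance at 540 nm relative to full lysis by 2.5% Triton X-100 (PBS defines 0%). Compounds, 200 μg/mL, were exposed for 1 h at 37° C to a 20% (v/v) suspension of washed human red cells.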

[2] = tested on: Escherichia coli MCR-1 Af 45; conditions: Mueller-Hinton broth II, no visible growth after 18-20 hours at 35° C.
Outline: (§1)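 Peptides were made up as 1 mg/mL stocks in sterile water. Colonies in 0.85% saline were set to 0.5 McFarland, then diluted in cation-adjusted Mueller-Hinton II broth to about 5×10^5 CFU/mL. Inoculum was combined with two-fold serial peptide dilutions in water containing 0.002% (final) polysorbate 80.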

[3] = tested on: Escherichia coli ATCC 25922; conditions: ATCC 25922
Outline: as §1

[4] = tested on: Klebsiella pneumoniae SSI3010; conditions: SSI3010
Outline: as §1

In the case of `CC[C@H](C)[C@H](NC(=O)[C@@H]1C[C@@H](O)CN1C(=O)[C@@H](N)C(C)C)C(=O)N[C@@H](CCN)C(=O)N[C@@H](Cc1ccc(O)cc1)C(=O)N[C@@H]1C(=O)N[C@@H](CC(N)=O)C(=O)N[C@@H](CCCNC(=N)N)C(=O)N[C@@H](CCN)C(=O)N[C@@H]([C@@H](C)O)C(=O)N[C@H](CCN)C(=O)N[C@@H](CCCNC(N)=O)C(=O)N[C@H](C(=O)N[C@@H](CCN)C(=O)N[C@@H](CO)C(=O)N[C@@H](Cc2ccc(O)cc2)C(=O)O)CSSC1(C)C` [Example 108, Val-Hyp-Ile-Dab-Tyr-Pen-Asn-Arg-Dab-Thr-^DDab-Cit-Cys-Dab-Ser-Tyr] (HELM PEPTIDE1{V.[Hyp].I.[Dab].Y.[Pen].N.R.[Dab].T.[NCC[C@@H](N[*:1])C(=O)[*:2]].[Cit].C.[Dab].S.Y}$PEPTIDE1,PEPTIDE1,6:R3-13:R3$$$V2.0), the “Hemolysis at 0.2 g/L” value [1] is reported as <1%, the “Escherichia coli MCR-1 Af 45 MIC” value [2] is reported as 0.125 µg/mL and the “Escherichia coli ATCC 25922 MIC” value [3] is reported as 0.25 µg/mL. The “Klebsiella pneumoniae SSI3010 MIC” value [4] was 0.25 µg/mL.

`CC[C@H](C)[C@H](NC(=O)[C@@H](NC(=O)[C@@H]1C[C@@H](N)CN1C(=O)[C@@H](N)C(C)C)[C@@H](C)CC)C(=O)N[C@@H](Cc1ccc(O)cc1)C(=O)N[C@@H]1C(=O)N[C@@H](CC(N)=O)C(=O)N[C@@H](CCCNC(=N)N)C(=O)N[C@@H](CCN)C(=O)N[C@@H]([C@@H](C)O)C(=O)N[C@H](CCN)C(=O)N[C@@H](CCCCN)C(=O)N[C@H](C(=O)N[C@@H](CCN)C(=O)N[C@H](C(=O)N[C@@H](Cc2ccc(O)cc2)C(=O)O)[C@@H](C)O)CSSC1(C)C` [Example 109, Val-Pro((4R)NH2)-Ile-Ile-Tyr-Pen-Asn-Arg-Dab-Thr-^DDab-Lys-Cys-Dab-Thr-Tyr] (HELM PEPTIDE1{V.[N[C@@H]1C[C@@H](C(=O)[*:2])N([*:1])C1].I.I.Y.[Pen].N.R.[Dab].T.[NCC[C@@H](N[*:1])C(=O)[*:2]].K.C.[Dab].T.Y}$PEPTIDE1,PEPTIDE1,6:R3-13:R3$$$V2.0) was tested, and the “Hemolysis at 0.2 g/L” value [1] was <1%, the “Escherichia coli MCR-1 Af 45 MIC” value [2] was 0.125 µg/mL and the “Escherichia coli ATCC 25922 MIC” value [3] was 0.125 µg/mL. The “Klebsiella pneumoniae SSI3010 MIC” value [4] was 0.25 µg/mL.

In the case of `CC[C@H](C)[C@H](NC(=O)[C@@H]1C[C@@H](N)CN1C(=O)[C@@H](N)C(C)C)C(=O)N[C@H](C(=O)N[C@@H](Cc1ccc(O)cc1)C(=O)N[C@@H]1C(=O)N[C@@H](CC(N)=O)C(=O)N[C@@H](CCCNC(=N)N)C(=O)N[C@@H](CCN)C(=O)N[C@@H]([C@@H](C)O)C(=O)N[C@H](CCN)C(=O)N[C@@H](CCCCN)C(=O)N[C@H](C(=O)N[C@@H](CO)C(=O)N[C@@H](CCCNC(=N)N)C(=O)N[C@@H](Cc2ccc(O)cc2)C(=O)O)CSSC1(C)C)[C@@H](C)O` [Example 110, Val-Pro((4R)NH2)-Ile-Thr-Tyr-Pen-Asn-Arg-Dab-Thr-^DDab-Lys-Cys-Ser-Arg-Tyr] (HELM PEPTIDE1{V.[N[C@@H]1C[C@@H](C(=O)[*:2])N([*:1])C1].I.T.Y.[Pen].N.R.[Dab].T.[NCC[C@@H](N[*:1])C(=O)[*:2]].K.C.S.R.Y}$PEPTIDE1,PEPTIDE1,6:R3-13:R3$$$V2.0), the “Hemolysis at 0.2 g/L” value [1] is reported as <1%, the “Escherichia coli MCR-1 Af 45 MIC” value [2] is reported as 0.125 µg/mL and the “Escherichia coli ATCC 25922 MIC” value [3] is reported as 0.5 µg/mL. The “Klebsiella pneumoniae SSI3010 MIC” value [4] was 0.5 µg/mL.

For `CC[C@H](C)[C@H](NC(=O)[C@@H](NC(=O)[C@@H]1C[C@@H](O)CN1C(=O)[C@@H](N)C(C)C)[C@@H](C)CC)C(=O)N[C@@H](Cc1ccc(O)cc1)C(=O)N[C@@H]1C(=O)N[C@@H](CC(N)=O)C(=O)N[C@@H](CCCNC(=N)N)C(=O)N[C@@H](CCN)C(=O)N[C@@H]([C@@H](C)O)C(=O)N[C@H](CCN)C(=O)N[C@@H](CCCCN)C(=O)N[C@H](C(=O)N[C@@H](CCN)C(=O)N[C@H](C(=O)N[C@@H](Cc2ccc(O)cc2)C(=O)O)[C@@H](C)O)CSSC1(C)C` [Example 111, Val-Hyp-Ile-Ile-Tyr-Pen-Asn-Arg-Dab-Thr-^DDab-Lys-Cys-Dab-Thr-Tyr] (HELM PEPTIDE1{V.[Hyp].I.I.Y.[Pen].N.R.[Dab].T.[NCC[C@@H](N[*:1])C(=O)[*:2]].K.C.[Dab].T.Y}$PEPTIDE1,PEPTIDE1,6:R3-13:R3$$$V2.0), the “Hemolysis at 0.2 g/L” value [1] was <1%, the “Escherichia coli MCR-1 Af 45 MIC” value [2] was 0.125 µg/mL and the “Escherichia coli ATCC 25922 MIC” value [3] was 0.25 µg/mL. The “Klebsiella pneumoniae SSI3010 MIC” value [4] was 0.5 µg/mL.

`CC[C@H](C)[C@H](NC(=O)[C@@H](NC(=O)[C@@H]1C[C@@H](O)CN1C(=O)[C@@H](N)C(C)C)[C@@H](C)CC)C(=O)N[C@@H](Cc1ccc(O)cc1)C(=O)N[C@@H]1C(=O)N[C@@H](CC(N)=O)C(=O)N[C@@H](CCCNC(=N)N)C(=O)N[C@@H](CCN)C(=O)N[C@@H](CO)C(=O)N[C@H](CCN)C(=O)N[C@@H](CCCCN)C(=O)N[C@H](C(=O)N[C@@H](CCN)C(=O)N[C@H](C(=O)N[C@@H](Cc2ccc(O)cc2)C(=O)O)[C@@H](C)O)CSSC1(C)C` [Example 112, Val-Hyp-Ile-Ile-Tyr-Pen-Asn-Arg-Dab-Ser-^DDab-Lys-Cys-Dab-Thr-Tyr] (HELM PEPTIDE1{V.[Hyp].I.I.Y.[Pen].N.R.[Dab].S.[NCC[C@@H](N[*:1])C(=O)[*:2]].K.C.[Dab].T.Y}$PEPTIDE1,PEPTIDE1,6:R3-13:R3$$$V2.0) was tested, and the “Hemolysis at 0.2 g/L” value [1] was <1%, the “Escherichia coli MCR-1 Af 45 MIC” value [2] was 0.0625 µg/mL and the “Escherichia coli ATCC 25922 MIC” value [3] was 0.25 µg/mL. The “Klebsiella pneumoniae SSI3010 MIC” value [4] was 0.25 µg/mL.

In the case of `CC[C@H](C)[C@H](NC(=O)[C@@H]1C[C@@H](O)CN1C(=O)[C@@H](N)C(C)C)C(=O)N[C@@H](CCN)C(=O)N[C@@H](Cc1ccc(O)cc1)C(=O)N[C@@H]1C(=O)N[C@@H](CC(N)=O)C(=O)N[C@@H](CCCNC(=N)N)C(=O)N[C@@H](CCN)C(=O)N[C@@H]([C@@H](C)O)C(=O)N[C@H](CCN)C(=O)N[C@@H](CCCNC(N)=O)C(=O)N[C@H](C(=O)N[C@@H](CCN)C(=O)N[C@H](C(=O)N[C@@H](Cc2ccc(O)cc2)C(=O)O)[C@@H](C)O)CSSC1(C)C` [Example 113, Val-Hyp-Ile-Dab-Tyr-Pen-Asn-Arg-Dab-Thr-^DDab-Cit-Cys-Dab-Thr-Tyr] (HELM PEPTIDE1{V.[Hyp].I.[Dab].Y.[Pen].N.R.[Dab].T.[NCC[C@@H](N[*:1])C(=O)[*:2]].[Cit].C.[Dab].T.Y}$PEPTIDE1,PEPTIDE1,6:R3-13:R3$$$V2.0), the “Hemolysis at 0.2 g/L” value [1] is reported as <1%, the “Escherichia coli MCR-1 Af 45 MIC” value [2] is reported as 0.125 µg/mL and the “Escherichia coli ATCC 25922 MIC” value [3] is reported as 0.125 µg/mL. The “Klebsiella pneumoniae SSI3010 MIC” value [4] was 0.25 µg/mL.

With `CC[C@H](C)[C@H](NC(=O)[C@@H](NC(=O)[C@@H]1C[C@@H](O)CN1C(=O)[C@@H](N)C(C)(C)C)[C@@H](C)CC)C(=O)N[C@@H](Cc1ccc(O)cc1)C(=O)N[C@@H]1C(=O)N[C@@H](CC(N)=O)C(=O)N[C@@H](CCCNC(=N)N)C(=O)N[C@@H](CCN)C(=O)N[C@@H]([C@@H](C)O)C(=O)N[C@H](CCN)C(=O)N[C@@H](CCCCN)C(=O)N[C@H](C(=O)N[C@@H](CCN)C(=O)N[C@@H](CCCNC(=N)N)C(=O)N[C@@H](Cc2ccc(O)cc2)C(=O)O)CSSC1(C)C` [Example 114, tBuGly-Hyp-Ile-Ile-Tyr-Pen-Asn-Arg-Dab-Thr-^DDab-Lys-Cys-Dab-Arg-Tyr] (HELM PEPTIDE1{[CC(C)(C)[C@H](N)C(=O)[*:2]].[Hyp].I.I.Y.[Pen].N.R.[Dab].T.[NCC[C@@H](N[*:1])C(=O)[*:2]].K.C.[Dab].R.Y}$PEPTIDE1,PEPTIDE1,6:R3-13:R3$$$V2.0) the “Hemolysis at 0.2 g/L” value [1] was <1%, the “Escherichia coli MCR-1 Af 45 MIC” value [2] was 0.125 µg/mL and the “Escherichia coli ATCC 25922 MIC” value [3] was 0.125 µg/mL. The “Klebsiella pneumoniae SSI3010 MIC” value [4] was 0.5 µg/mL.

In the case of `CC[C@H](C)[C@H](NC(=O)[C@@H](NC(=O)[C@@H]1C[C@@H](N)CN1C(=O)[C@@H](N)C(C)C)[C@@H](C)CC)C(=O)N[C@@H](Cc1ccc(O)cc1)C(=O)N[C@@H]1C(=O)N[C@@H](CC(N)=O)C(=O)N[C@@H](CCCNC(=N)N)C(=O)N[C@@H](CCN)C(=O)N[C@@H]([C@@H](C)O)C(=O)N[C@H](CCN)C(=O)N[C@@H]([C@@H](C)CC)C(=O)N[C@H](C(=O)N[C@@H](CCN)C(=O)N[C@H](C(=O)N[C@@H](Cc2ccc(O)cc2)C(=O)O)[C@@H](C)O)CSSC1(C)C` [Example 115, Val-Pro((4R)NH2)-Ile-Ile-Tyr-Pen-Asn-Arg-Dab-Thr-^DDab-Ile-Cys-Dab-Thr-Tyr] (HELM PEPTIDE1{V.[N[C@@H]1C[C@@H](C(=O)[*:2])N([*:1])C1].I.I.Y.[Pen].N.R.[Dab].T.[NCC[C@@H](N[*:1])C(=O)[*:2]].I.C.[Dab].T.Y}$PEPTIDE1,PEPTIDE1,6:R3-13:R3$$$V2.0), the “Hemolysis at 0.2 g/L” value [1] is reported as <1%, the “Escherichia coli MCR-1 Af 45 MIC” value [2] is reported as 0.125 µg/mL and the “Escherichia coli ATCC 25922 MIC” value [3] is reported as 0.5 µg/mL. For the same compound, the “Klebsiella pneumoniae SSI3010 MIC” value [4] was 0.5 µg/mL.

In the case of `CC[C@H](C)[C@H](NC(=O)[C@@H]1C[C@@H](N)CN1C(=O)[C@@H](N)C(C)C)C(=O)N[C@H](C(=O)N[C@@H](Cc1ccc(O)cc1)C(=O)N[C@@H]1C(=O)N[C@@H](CC(N)=O)C(=O)N[C@@H](CCCNC(=N)N)C(=O)N[C@@H](CCN)C(=O)N[C@@H]([C@@H](C)O)C(=O)N[C@H](CCN)C(=O)N[C@@H](CCCNC(N)=O)C(=O)N[C@H](C(=O)N[C@@H](CCN)C(=O)N[C@H](C(=O)N[C@@H](Cc2ccc(O)cc2)C(=O)O)[C@@H](C)O)CSSC1(C)C)[C@@H](C)O` [Example 116, Val-Pro((4R)NH2)-Ile-Thr-Tyr-Pen-Asn-Arg-Dab-Thr-^DDab-Cit-Cys-Dab-Thr-Tyr] (HELM PEPTIDE1{V.[N[C@@H]1C[C@@H](C(=O)[*:2])N([*:1])C1].I.T.Y.[Pen].N.R.[Dab].T.[NCC[C@@H](N[*:1])C(=O)[*:2]].[Cit].C.[Dab].T.Y}$PEPTIDE1,PEPTIDE1,6:R3-13:R3$$$V2.0), the “Hemolysis at 0.2 g/L” value [1] is reported as <1%, the “Escherichia coli MCR-1 Af 45 MIC” value [2] is reported as 0.25 µg/mL and the “Escherichia coli ATCC 25922 MIC” value [3] is reported as 0.25 µg/mL. For the same compound, the “Klebsiella pneumoniae SSI3010 MIC” value [4] was 0.5 µg/mL.
